Experimental data as given in paper PMC9100275, “Development of 1-(4-(Substituted)piperazin-1-yl)-2-((2-((4-methoxybenzyl)thio)pyrimidin-4-yl)oxy)ethanones That Target Poly (ADP-Ribose) Polymerase in Human Breast Cancer Cells” (Molecules, 2022).
Read-outs that look alike come from different tables or passages of the source.

How the values were obtained:
PARP1 [1] = target: T1, PARP1 (Homo sapiens, UniProt P09874); experiment: colorimetric PARP activity assay with recombinant human PARP enzyme; % inhibition at […] ([…] at […]); assay type: biochemical
T1 sequence (P09874 2-1014): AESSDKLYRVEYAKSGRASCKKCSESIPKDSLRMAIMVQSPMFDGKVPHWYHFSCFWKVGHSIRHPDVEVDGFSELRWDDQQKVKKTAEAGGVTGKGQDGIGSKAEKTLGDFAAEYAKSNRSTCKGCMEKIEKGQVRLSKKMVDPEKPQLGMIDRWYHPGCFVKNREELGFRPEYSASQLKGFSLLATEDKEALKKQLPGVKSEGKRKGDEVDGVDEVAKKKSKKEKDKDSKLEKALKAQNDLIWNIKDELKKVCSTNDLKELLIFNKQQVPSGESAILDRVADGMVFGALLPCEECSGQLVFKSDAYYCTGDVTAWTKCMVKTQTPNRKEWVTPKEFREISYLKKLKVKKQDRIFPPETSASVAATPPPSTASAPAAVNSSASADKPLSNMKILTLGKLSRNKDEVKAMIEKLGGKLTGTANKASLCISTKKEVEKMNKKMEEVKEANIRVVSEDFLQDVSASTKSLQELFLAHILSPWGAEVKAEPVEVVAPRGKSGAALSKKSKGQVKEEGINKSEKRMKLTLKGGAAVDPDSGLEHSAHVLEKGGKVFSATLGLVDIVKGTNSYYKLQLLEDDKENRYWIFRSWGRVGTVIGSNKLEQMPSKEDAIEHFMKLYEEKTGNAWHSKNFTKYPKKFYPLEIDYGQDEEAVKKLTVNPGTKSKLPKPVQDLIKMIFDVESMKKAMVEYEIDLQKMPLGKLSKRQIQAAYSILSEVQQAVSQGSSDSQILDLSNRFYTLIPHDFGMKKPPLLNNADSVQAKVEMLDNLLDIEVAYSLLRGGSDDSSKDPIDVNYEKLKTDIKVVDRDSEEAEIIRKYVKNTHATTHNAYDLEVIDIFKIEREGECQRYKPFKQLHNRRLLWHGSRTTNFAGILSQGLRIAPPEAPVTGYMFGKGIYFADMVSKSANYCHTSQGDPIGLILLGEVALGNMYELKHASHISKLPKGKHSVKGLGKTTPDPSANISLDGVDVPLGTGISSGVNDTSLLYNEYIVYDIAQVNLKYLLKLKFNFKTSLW

PARP1 [2] = target: T1, PARP1; experiment: as above; assay type: biochemical; remark: listed apart in the source

| inhibition at 10 µM (PARP1 [1]) [%] | inhibition at 10 µM (PARP1 [2]) [%] | Compound |
| --- | --- | --- |
| 53 |  | COc1ccc(CSc2nccc(OCC(=O)N3CCN(c4ccc(C)cc4)CC3)n2)cc1 [5e, 2-((2-((4-Methoxybenzyl)thio)pyrimidin-4-yl)oxy)-1-(4-(p-tolyl)piperazin-1-yl)ethanone] |
|  | 70.3 | COc1ccc(CSc2nccc(OCC(=O)N3CCN(c4cccc(Cl)c4Cl)CC3)n2)cc1 [5a, 1-(4-(2,3-Dichlorophenyl)piperazin-1-yl)-2-((2-((4-methoxybenzyl)thio)pyrimidin-4-yl)oxy)ethanone] |
